PubChem BioAssay AID2060328 (Molecular Pharmacology Branch, DTP, NCI, 2025)
pIC50: −log10 of the molar value.

Test system: MDA-MB-231 multicell spheroids, viability (%T/C)
Test: Anticancer human tumor MDA-MB-231 cell line growth inhibition [IpAb];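 also: viability read after seven days of drug exposure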;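 as to viability, T/C: 100% = DMSO vehicle control viability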
Conditions: for pIC50: curve of first compound; for viability, T/C: stronger effect = lower value
Summary of the method: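 Combinations with ipatasertib or abemaciclib were tested on tumour spheroids holding HUVEC (25%) and MSC (15%) alongside 60% malignant cells. Top concentration was at or near clinical Cmax (10 microM if undefined), descending in half-log steps.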

[1] = second compound 0.1 µM, first compound 0.0316 µM
[2] = second compound 0.1 µM, first compound 0.1 µM
[3] = second compound 0.1 µM, first compound 0.316 µM
[4] = second compound 0.1 µM, first compound 1 µM
[5] = second compound 0.1 µM, first compound 3.16 µM
[6] = second compound 0.1 µM, first compound 10 µM
[7] = second compound 0.316 µM, first compound 0.0316 µM
[8] = second compound 0.316 µM, first compound 0.1 µM
[9] = second compound 0.316 µM, first compound 0.316 µM
[10] = second compound 0.316 µM, first compound 1 µM
[11] = second compound 0.316 µM, first compound 3.16 µM
[12] = second compound 0.316 µM, first compound 10 µM
[13] = second compound 1 µM, first compound 0.0316 µM
[14] = second compound 1 µM, first compound 0.1 µM
[15] = second compound 1 µM, first compound 0.316 µM
[16] = second compound 1 µM, first compound 1 µM
[17] = second compound 1 µM, first compound 3.16 µM
[18] = second compound 1 µM, first compound 10 µM
[19] = second compound 3.16 µM, first compound 0.0316 µM
[20] = second compound 3.16 µM, first compound 0.1 µM
[21] = second compound 3.16 µM, first compound 0.316 µM
[22] = second compound 3.16 µM, first compound 1 µM
[23] = second compound 3.16 µM, first compound 3.16 µM
[24] = second compound 3.16 µM, first compound 10 µM
[25] = second compound 10 µM, first compound 0.0316 µM
[26] = second compound 10 µM, first compound 0.1 µM
[27] = second compound 10 µM, first compound 0.316 µM
[28] = second compound 10 µM, first compound 1 µM
[29] = second compound 10 µM, first compound 3.16 µM
[30] = second compound 10 µM, first compound 10 µM

SMILES: C=CC(=O)N1CCN(c2nc(=O)n(-c3c(C)ccnc3C(C)C)c3nc(-c4c(O)cccc4F)c(F)cc23)C(C)C1 (stereo not given) + CC(C)NCC(C(=O)N1CCN(c2ncnc3c2C(C)CC3O)CC1)c1ccc(Cl)cc1
- pIC50 (second compound 0.1 µM): < 5.00
- pIC50 (second compound 0.316 µM): < 5.00
- pIC50 (second compound 1 µM): < 5.00
- pIC50 (second compound 3.16 µM): < 5.00
- pIC50 (second compound 10 µM): > 7.50
- viability, T/C [1]: 111%
- viability, T/C [2]: 113%
- viability, T/C [3]: 116%
- viability, T/C [4]: 129%
- viability, T/C [5]: 120%
- viability, T/C [6]: 78.3%
- viability, T/C [7]: 96.1%
- viability, T/C [8]: 97%
- viability, T/C [9]: 105%
- viability, T/C [10]: 111%
- viability, T/C [11]: 95.4%
- viability, T/C [12]: 64.4%
- viability, T/C [13]: 81.9%
- viability, T/C [14]: 79.8%
- viability, T/C [15]: 82.3%
- viability, T/C [16]: 86%
- viability, T/C [17]: 71%
- viability, T/C [18]: 52.6%
- viability, T/C [19]: 57.2%
- viability, T/C [20]: 68.6%
- viability, T/C [21]: 67%
- viability, T/C [22]: 67.5%
- viability, T/C [23]: 62.1%
- viability, T/C [24]: 44.5%
- viability, T/C [25]: 42.5%
- viability, T/C [26]: 45.9%
- viability, T/C [27]: 44.4%
- viability, T/C [28]: 42.7%
- viability, T/C [29]: 41.6%
- viability, T/C [30]: 32.1%

SMILES: CC(C)(C)c1cnc(CSc2cnc(NC(=O)C3CCNCC3)s2)o1 + CC(C)NCC(C(=O)N1CCN(c2ncnc3c2C(C)CC3O)CC1)c1ccc(Cl)cc1
- pIC50 (second compound 0.1 µM): 6.77
- pIC50 (second compound 0.316 µM): 6.82
- pIC50 (second compound 1 µM): 6.85
- pIC50 (second compound 3.16 µM): 6.96
- pIC50 (second compound 10 µM): > 8.02
- viability, T/C (second compound 0.1 µM, first compound 0.00949 µM): 110%
- viability, T/C (second compound 0.1 µM, first compound 0.03 µM): 115%
- viability, T/C (second compound 0.1 µM, first compound 0.0949 µM): 101%
- viability, T/C (second compound 0.1 µM, first compound 0.3 µM): 1.85%
- viability, T/C (second compound 0.1 µM, first compound 0.949 µM): 1.02%
- viability, T/C (second compound 0.1 µM, first compound 3 µM): 1.06%
- viability, T/C (second compound 0.316 µM, first compound 0.00949 µM): 94.5%
- viability, T/C (second compound 0.316 µM, first compound 0.03 µM): 98.8%
- viability, T/C (second compound 0.316 µM, first compound 0.0949 µM): 83.5%
- viability, T/C (second compound 0.316 µM, first compound 0.3 µM): 1.35%
- viability, T/C (second compound 0.316 µM, first compound 0.949 µM): 0.87%
- viability, T/C (second compound 0.316 µM, first compound 3 µM): 0.98%
- viability, T/C (second compound 1 µM, first compound 0.00949 µM): 79.2%
- viability, T/C (second compound 1 µM, first compound 0.03 µM): 84.8%
- viability, T/C (second compound 1 µM, first compound 0.0949 µM): 74.4%
- viability, T/C (second compound 1 µM, first compound 0.3 µM): 2.5%
- viability, T/C (second compound 1 µM, first compound 0.949 µM): 0.85%
- viability, T/C (second compound 1 µM, first compound 3 µM): 0.86%
- viability, T/C (second compound 3.16 µM, first compound 0.00949 µM): 61.1%
- viability, T/C (second compound 3.16 µM, first compound 0.03 µM): 61.7%
- viability, T/C (second compound 3.16 µM, first compound 0.0949 µM): 56.5%
- viability, T/C (second compound 3.16 µM, first compound 0.3 µM): 1.57%
- viability, T/C (second compound 3.16 µM, first compound 0.949 µM): 0.65%
- viability, T/C (second compound 3.16 µM, first compound 3 µM): 0.78%
- viability, T/C (second compound 10 µM, first compound 0.00949 µM): 42.1%
- viability, T/C (second compound 10 µM, first compound 0.03 µM): 43.8%
- viability, T/C (second compound 10 µM, first compound 0.0949 µM): 35.1%
- viability, T/C (second compound 10 µM, first compound 0.3 µM): 0.95%
- viability, T/C (second compound 10 µM, first compound 0.949 µM): 0.79%
- viability, T/C (second compound 10 µM, first compound 3 µM): 0.8%

SMILES: Cn1ncc(Cl)c1-c1cc(C(=O)NC(CN)Cc2cccc(F)c2)sc1Cl (stereo not given) + CC(C)NCC(C(=O)N1CCN(c2ncnc3c2C(C)CC3O)CC1)c1ccc(Cl)cc1
- pIC50 (second compound 0.1 µM): 5.80
- pIC50 (second compound 0.316 µM): 5.90
- pIC50 (second compound 1 µM): 5.96
- pIC50 (second compound 3.16 µM): 6.33
- pIC50 (second compound 10 µM): > 7.50
- viability, T/C [1]: 99.1%
- viability, T/C [2]: 88%
- viability, T/C [3]: 80.3%
- viability, T/C [4]: 61.8%
- viability, T/C [5]: 33%
- viability, T/C [6]: 0.11%
- viability, T/C [7]: 70.7%
- viability, T/C [8]: 79.4%
- viability, T/C [9]: 71.2%
- viability, T/C [10]: 49%
- viability, T/C [11]: 34.3%
- viability, T/C [12]: 0.12%
- viability, T/C [13]: 74.1%
- viability, T/C [14]: 71.9%
- viability, T/C [15]: 63.1%
- viability, T/C [16]: 50.6%
- viability, T/C [17]: 32.8%
- viability, T/C [18]: 0.11%
- viability, T/C [19]: 57.3%
- viability, T/C [20]: 59.1%
- viability, T/C [21]: 49.7%
- viability, T/C [22]: 43%
- viability, T/C [23]: 33.6%
- viability, T/C [24]: 0.34%
- viability, T/C [25]: 42.2%
- viability, T/C [26]: 41.1%
- viability, T/C [27]: 37.5%
- viability, T/C [28]: 37.5%
- viability, T/C [29]: 26.1%
- viability, T/C [30]: 0.49%

SMILES: Cn1nccc1Nc1nccc(-c2ccn(C(CO)c3ccc(Cl)c(F)c3)c(=O)c2)n1 (stereo not given) + CC(C)NCC(C(=O)N1CCN(c2ncnc3c2C(C)CC3O)CC1)c1ccc(Cl)cc1
- pIC50 (second compound 0.1 µM): 6.59
- pIC50 (second compound 0.316 µM): 7.34
- pIC50 (second compound 1 µM): > 7.50
- pIC50 (second compound 3.16 µM): > 7.50
- pIC50 (second compound 10 µM): > 7.50
- viability, T/C [1]: 64.3%
- viability, T/C [2]: 53.5%
- viability, T/C [3]: 48.7%
- viability, T/C [4]: 43.1%
- viability, T/C [5]: 25.2%
- viability, T/C [6]: 18.7%
- viability, T/C [7]: 52.8%
- viability, T/C [8]: 43.8%
- viability, T/C [9]: 38.1%
- viability, T/C [10]: 29.3%
- viability, T/C [11]: 23.5%
- viability, T/C [12]: 18%
- viability, T/C [13]: 38.7%
- viability, T/C [14]: 36.1%
- viability, T/C [15]: 32.2%
- viability, T/C [16]: 27.8%
- viability, T/C [17]: 16.3%
- viability, T/C [18]: 15.3%
- viability, T/C [19]: 34.3%
- viability, T/C [20]: 28.7%
- viability, T/C [21]: 27.1%
- viability, T/C [22]: 21.5%
- viability, T/C [23]: 12.9%
- viability, T/C [24]: 10.4%
- viability, T/C [25]: 24.2%
- viability, T/C [26]: 22.8%
- viability, T/C [27]: 16.7%
- viability, T/C [28]: 14.9%
- viability, T/C [29]: 9%
- viability, T/C [30]: 6.42%

SMILES: Cn1ncnc1[C@H]1c2n[nH]c(=O)c3cc(F)cc(c23)N[C@@H]1c1ccc(F)cc1 + CC(C)NCC(C(=O)N1CCN(c2ncnc3c2C(C)CC3O)CC1)c1ccc(Cl)cc1
- pIC50 (second compound 0.1 µM): < 7.00
- pIC50 (second compound 0.316 µM): < 7.00
- pIC50 (second compound 1 µM): < 7.00
- pIC50 (second compound 3.16 µM): 8.63
- pIC50 (second compound 10 µM): > 9.50
- viability, T/C (second compound 0.1 µM, first compound 0.000316 µM): 96.6%
- viability, T/C (second compound 0.1 µM, first compound 0.001 µM): 89.4%
- viability, T/C (second compound 0.1 µM, first compound 0.00316 µM): 81.9%
- viability, T/C (second compound 0.1 µM, first compound 0.01 µM): 78.9%
- viability, T/C [1]: 76.6%
- viability, T/C [2]: 73.1%
- viability, T/C (second compound 0.316 µM, first compound 0.000316 µM): 83.9%
- viability, T/C (second compound 0.316 µM, first compound 0.001 µM): 77%
- viability, T/C (second compound 0.316 µM, first compound 0.00316 µM): 71.8%
- viability, T/C (second compound 0.316 µM, first compound 0.01 µM): 70.1%
- viability, T/C [7]: 69.1%
- viability, T/C [8]: 62.1%
- viability, T/C (second compound 1 µM, first compound 0.000316 µM): 70.4%
- viability, T/C (second compound 1 µM, first compound 0.001 µM): 68.9%
- viability, T/C (second compound 1 µM, first compound 0.00316 µM): 59.2%
- viability, T/C (second compound 1 µM, first compound 0.01 µM): 58%
- viability, T/C [13]: 56.8%
- viability, T/C [14]: 56.5%
- viability, T/C (second compound 3.16 µM, first compound 0.000316 µM): 54.6%
- viability, T/C (second compound 3.16 µM, first compound 0.001 µM): 54.3%
- viability, T/C (second compound 3.16 µM, first compound 0.00316 µM): 49.6%
- viability, T/C (second compound 3.16 µM, first compound 0.01 µM): 44.9%
- viability, T/C [19]: 45.7%
- viability, T/C [20]: 47%
- viability, T/C (second compound 10 µM, first compound 0.000316 µM): 42.3%
- viability, T/C (second compound 10 µM, first compound 0.001 µM): 41%
- viability, T/C (second compound 10 µM, first compound 0.00316 µM): 38.5%
- viability, T/C (second compound 10 µM, first compound 0.01 µM): 33.8%
- viability, T/C [25]: 34.9%
- viability, T/C [26]: 34.1%
